System: SYO-1 tumor spheroids, viability % test/control
Assay: Anticancer human tumor SYO-1 cell line growth inhibition;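 also: spheroids exposed to agents for 7 days before viability read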;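 as to viability, T/C: 100% = DMSO vehicle control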
Conditions: spheroids with HUVEC and MSC; for IC50: curve of first compound; for viability, T/C: stronger effect = lower value
Summary of the method: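 Single agents and combinations were tested on spheroids built from tumor cells plus HUVEC and hMSC, at half-log dilutions starting at or near clinical Cmax, else 10 microM; final DMSO 0.25% (v/v).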

[1] = second compound 1 µM, first compound 0.00949 µM
[2] = second compound 1 µM, first compound 0.03 µM
[3] = second compound 1 µM, first compound 0.0949 µM
[4] = second compound 1 µM, first compound 0.3 µM
[5] = second compound 1 µM, first compound 0.949 µM
[6] = second compound 1 µM, first compound 3 µM
[7] = second compound 3.16 µM, first compound 0.00949 µM
[8] = second compound 3.16 µM, first compound 0.03 µM
[9] = second compound 3.16 µM, first compound 0.0949 µM
[10] = second compound 3.16 µM, first compound 0.3 µM
[11] = second compound 3.16 µM, first compound 0.949 µM
[12] = second compound 3.16 µM, first compound 3 µM
[13] = second compound 10 µM, first compound 0.00949 µM
[14] = second compound 10 µM, first compound 0.03 µM
[15] = second compound 10 µM, first compound 0.0949 µM
[16] = second compound 10 µM, first compound 0.3 µM
[17] = second compound 10 µM, first compound 0.949 µM
[18] = second compound 10 µM, first compound 3 µM
[19] = second compound 31.6 µM, first compound 0.00949 µM
[20] = second compound 31.6 µM, first compound 0.03 µM
[21] = second compound 31.6 µM, first compound 0.0949 µM
[22] = second compound 31.6 µM, first compound 0.3 µM
[23] = second compound 31.6 µM, first compound 0.949 µM
[24] = second compound 31.6 µM, first compound 3 µM
[25] = second compound 100 µM, first compound 0.00949 µM
[26] = second compound 100 µM, first compound 0.03 µM
[27] = second compound 100 µM, first compound 0.0949 µM
[28] = second compound 100 µM, first compound 0.3 µM
[29] = second compound 100 µM, first compound 0.949 µM
[30] = second compound 100 µM, first compound 3 µM

SMILES | IC50 (second compound 1 µM) [nM] | IC50 (second compound 3.16 µM) [nM] | IC50 (second compound 10 µM) [nM] | IC50 (second compound 31.6 µM) [nM] | IC50 (second compound 100 µM) [nM] | viability, T/C [3] [%] | viability, T/C [4] [%] | viability, T/C [5] [%] | viability, T/C [6] [%] | viability, T/C [9] [%] | viability, T/C [10] [%] | viability, T/C [11] [%] | viability, T/C [12] [%] | viability, T/C [15] [%] | viability, T/C [16] [%] | viability, T/C [17] [%] | viability, T/C [18] [%] | viability, T/C [21] [%] | viability, T/C [22] [%] | viability, T/C [23] [%] | further results
CNCc1ccc(-c2cc(-c3nc(-c4ccc(S(=O)(=O)C(C)C)cc4)cnc3N)on2)cc1 + Cn1nnc2c(C(N)=O)ncn2c1=O | 145 | 163 | 147 | 80.8 | 47.6 | 77.6 | 2.58 | 0.22 | 0.09 | 91.6 | 2.75 | 0.12 | 0.09 | 79.6 | 1.77 | 0.13 | 0.1 | 40.9 | 1.76 | 0.23 | viability, T/C [1]: 105%; viability, T/C [2]: 98.7%; viability, T/C [7]: 105%; viability, T/C [8]: 103%; viability, T/C [13]: 107%; viability, T/C [14]: 99%; viability, T/C [19]: 111%; viability, T/C [20]: 106%; viability, T/C [24]: 0.11%; viability, T/C [25]: 107%; viability, T/C [26]: 77.2%; viability, T/C [27]: 9.17%; viability, T/C [28]: 1.95%; viability, T/C [29]: 0.23%; viability, T/C [30]: 0.18%
Cc1sc2c(c1C)C(c1ccc(Cl)cc1)=NC(CC(=O)Nc1ccc(O)cc1)c1nnc(C)n1-2 (stereo not given) + Cn1nnc2c(C(N)=O)ncn2c1=O | 64.2 | 63.2 | 59.2 | 53.5 | 26.1 | 29.7 | 1.14 | 0.56 | 0.57 | 28.6 | 1.02 | 0.71 | 0.61 | 21.4 | 1.06 | 0.76 | 0.54 | 15.5 | 1.03 | 0.85 | viability, T/C [1]: 93.6%; viability, T/C [2]: 89.6%; viability, T/C [7]: 93.6%; viability, T/C [8]: 89.3%; viability, T/C [13]: 94.3%; viability, T/C [14]: 91.3%; viability, T/C [19]: 101%; viability, T/C [20]: 84.8%; viability, T/C [24]: 0.62%; viability, T/C [25]: 91.8%; viability, T/C [26]: 44.3%; viability, T/C [27]: 1.77%; viability, T/C [28]: 1.29%; viability, T/C [29]: 0.88%; viability, T/C [30]: 0.73%
Cn1ncnc1[C@H]1c2n[nH]c(=O)c3cc(F)cc(c23)N[C@@H]1c1ccc(F)cc1 + Cn1nnc2c(C(N)=O)ncn2c1=O | 16.3 | 12.8 | < 9.49 | < 9.49 | < 9.49 | 4.52 | 2.53 | 1.69 | 1.94 | 2.83 | 2.28 | 2.09 | 1.5 | 2.35 | 1.79 | 1.63 | 2.1 | 2.35 | 1.86 | 2 | viability, T/C [1]: 79.6%; viability, T/C [2]: 16.8%; viability, T/C [7]: 65%; viability, T/C [8]: 7.02%; viability, T/C [13]: 4.61%; viability, T/C [14]: 2.33%; viability, T/C [19]: 2.52%; viability, T/C [20]: 2.5%; viability, T/C [24]: 1.4%; viability, T/C [25]: 2.64%; viability, T/C [26]: 2.03%; viability, T/C [27]: 2.06%; viability, T/C [28]: 2.04%; viability, T/C [29]: 1.62%; viability, T/C [30]: 1.71%
O=C(c1cc(Cc2n[nH]c(=O)c3ccccc23)ccc1F)N1CCN(C(=O)C2CC2)CC1 + Cn1nnc2c(C(N)=O)ncn2c1=O | 1660 | 1620 | 677 | 155 | < 94.9 | 103 | 96.2 | 88.9 | 9.23 | 103 | 94.3 | 88.4 | 6.01 | 103 | 94.6 | 31.6 | 2.83 | 76.8 | 13.5 | 3.35 | viability, T/C (second compound 1 µM, first compound 9.49 µM): 2.81%; viability, T/C (second compound 1 µM, first compound 30 µM): 1.98%; viability, T/C (second compound 3.16 µM, first compound 9.49 µM): 2.08%; viability, T/C (second compound 3.16 µM, first compound 30 µM): 1.94%; viability, T/C (second compound 10 µM, first compound 9.49 µM): 1.83%; viability, T/C (second compound 10 µM, first compound 30 µM): 1.82%; viability, T/C [24]: 2.28%; viability, T/C (second compound 31.6 µM, first compound 9.49 µM): 2.18%; viability, T/C (second compound 31.6 µM, first compound 30 µM): 1.77%; viability, T/C [27]: 3.25%; viability, T/C [28]: 2.69%; viability, T/C [29]: 2.42%; viability, T/C [30]: 2.49%; viability, T/C (second compound 100 µM, first compound 9.49 µM): 1.81%; viability, T/C (second compound 100 µM, first compound 30 µM): 1.75%

Reference: PubChem BioAssay AID1845219 (Molecular Pharmacology Branch, DTP, NCI, 2023)
